# Assay results reported in patent US7879853B2, “4,6-disubstituted pyrimidines and their use as protein kinase inhibitors” (Bayer Schering Pharma AG, priority 2004, dated 2011).
row,SMILES,melting point [°C]
1,Nc1cccc(C(=O)Nc2cccc(Nc3cc(-c4cccc5c4oc4ccccc45)ncn3)c2)c1.O=C(O)C(F)(F)F,150 to 153
2,"NCC(C(=O)Nc1cccc(Nc2cc(-c3cccc4c3oc3ccccc34)ncn2)c1)c1ccc(Cl)c(Cl)c1.O=C(O)C(F)(F)F (stereo not drawn) [Compound 76, 3-Amino-N-[3-(6-dibenzofuran-4-yl-pyrimidin-4-ylamino)-phenyl]-2-(3,4-dichlorophenyl)-propionamide trifluoroacetat]",138 to 145
3,"NCC(C(=O)Nc1ccc(Nc2cc(-c3cccc4c3oc3ccccc34)ncn2)cc1)c1ccc(Cl)c(Cl)c1.O=C(O)C(F)(F)F (stereo not drawn) [Compound 75, 3-Amino-N-[4-(6-dibenzofuran-4-yl-pyrimidin-4-ylamino)-phenyl]-2-(3,4-dichloro-phenyl)-propionamide trifluoroacetate]",195 to 205
4,"CN(C)c1ccc(C(=O)Nc2ccc(Nc3cc(-c4cccc5c4oc4ccccc45)ncn3)cc2)cc1 [Compound 2, N-[4-(6-Dibenzofuran-4-yl-pyrimidin-4-ylamino)-phenyl]-4-dimethylamino-benzamide]",285 to 300
5,"NCCc1ccc(C(=O)Nc2ccc(Nc3cc(-c4cccc5c4oc4ccccc45)ncn3)cc2)cc1.O=C(O)C(F)(F)F [Compound 55, 4-(2-Amino-ethyl)-N-[4-(6-dibenzofuran-4-yl-pyrimidin-4-ylamino)-phenyl]-benzamide trifluoroacetate]",202
6,"NCc1ccc(C(=O)Nc2ccc(Nc3cc(-c4cccc5c4oc4ccccc45)ncn3)cc2)cn1.O=C(O)C(F)(F)F [Compound 64, 6-Aminomethyl-N-[4-(6-dibenzofuran-4-yl-pyrimidin-4-ylamino)-phenyl]-nicotinamide trifluoroacetate]",145 to 150
7,"CN(C)c1ccccc1C(=O)Nc1ccc(Nc2cc(-c3cccc4c3oc3ccccc34)ncn2)cc1 [Compound 5, N-[4-(6-Dibenzofuran-4-yl-pyrimidin-4-ylamino)-phenyl]-2-dimethylamino-benzamide]",246 to 249
8,"NCCc1ccc(C(=O)Nc2cccc(Nc3cc(-c4cccc5c4oc4ccccc45)ncn3)c2)cc1.O=C(O)C(F)(F)F [Compound 58, 4-(2-Amino-ethyl)-N-[3-(6-dibenzofuran-4-yl-pyrimidin-4-ylamino)-phenyl]-benzamide trifluoroacetate]",87 to 90
9,"CC(C)(C)OC(=O)NCc1cccc(C(=O)Nc2cccc(Nc3cc(-c4cccc5c4oc4ccccc45)ncn3)c2)c1 [Compound 29, tert-Butyl N-{3-[3-(6-Dibenzofuran-4-yl-pyrimidin-4-ylamino)-phenylcarbamoyl]-benzyl}-carbamate]",216 to 219
10,"NCc1cc(C(=O)Nc2ccc(Nc3cc(-c4cccc5c4oc4ccccc45)ncn3)cc2)ccn1.O=C(O)C(F)(F)F [Compound 65, 2-Aminomethyl-N-[4-(6-dibenzofuran-4-yl-pyrimidin-4-ylamino)-phenyl]-isonicotinamide trifluoroacetate]",248 to 250
11,"CN1CCN(Cc2ccc(C(=O)Nc3ccc(Nc4cc(-c5cccc6c5oc5ccccc56)ncn4)cc3)cc2)CC1 [Compound 3, N-[4-(6-Dibenzofuran-4-yl-pyrimidin-4-ylamino)-phenyl]-4-(4-methyl-piperazin-1-ylmethyl)-benzamide]",270 to 274
12,"O=C(Nc1ccc(Nc2cc(-c3cccc4c3oc3ccccc34)ncn2)cc1)c1ccc(N2CCOCC2)nc1 [Compound 15, N-[4-(6-Dibenzofuran-4-yl-pyrimidin-4-ylamino)-phenyl]-6-morpholin-4-yl-nicotinamide]",310 to 312
13,"O=C(Nc1ccc(Nc2cc(-c3cccc4c3oc3ccccc34)ncn2)cc1)c1ccc(CN2CCOCC2)cc1 [Compound 13, N-[4-(6-Dibenzofuran-4-yl-pyrimidin-4-ylamino)-phenyl]-4-morpholin-4-ylmethyl-benzamide]",> 250
14,"CN1CCN(c2ccc(C(=O)Nc3ccc(Nc4cc(-c5cccc6c5oc5ccccc56)ncn4)cc3)cc2)CC1 [Compound 14, N-[4-(6-Dibenzofuran-4-yl-pyrimidin-4-ylamino)-phenyl]-4-(4-methyl-piperazin-1-yl)-benzamide]",304 to 319
15,"COCCC(CCOC)c1cccc(C(=O)Nc2ccc(Nc3cc(-c4cccc5c4oc4ccccc45)ncn3)cc2)c1 [Compound 16, N-[4-(6-Dibenzofuran-4-yl-pyrimidin-4-ylamino)-phenyl]-3-[3-methoxy-1-(2-methoxyethyl)-propyl]-benzamide]",186 to 188
16,"Nc1ccccc1C(=O)Nc1ccc(Nc2cc(-c3cccc4c3oc3ccccc34)ncn2)cc1.O=C(O)C(F)(F)F [Compound 50, 2-Amino-N-[4-(6-dibenzofuran-4-yl-pyrimidin-4-ylamino)-phenyl]-benzamide trifluoroacetate]",136 to 138
17,"CN(C)c1cccc(C(=O)Nc2cccc(Nc3cc(-c4cccc5c4oc4ccccc45)ncn3)c2)c1 [Compound 48, N-[3-(6-Dibenzofuran-4-yl-pyrimidin-4-ylamino)-phenyl]-3-dimethylamino-benzamide]",245 to 251
18,"CN(C)c1cccc(C(=O)Nc2ccc(Nc3cc(-c4cccc5c4oc4ccccc45)ncn3)cc2)c1 [Compound 10, N-[4-(6-Dibenzofuran-4-yl-pyrimidin-4-ylamino)-phenyl]-3-dimethylamino-benzamide]",225 to 232
19,"O=C(Nc1ccc(Nc2cc(-c3cccc4c3oc3ccccc34)ncn2)cc1)c1ccccc1 [Compound 7, N-[4-(6-Dibenzofuran-4-yl-pyrimidin-4-ylamino)-phenyl]-benzamide]",323 to 325

# Second part, the compound after the results:
row,melting point [°C],SMILES
1,259 to 261,"CC(C)(C)OC(=O)N1CCCC(c2ccc(C(=O)Nc3ccc(Nc4cc(-c5cccc6c5oc5ccccc56)ncn4)cc3)cc2)C1 (stereo not drawn) [Compound 20, tert-Butyl 3-{4-[4-(6-Dibenzofuran-4-yl-pyrimidin-4-ylamino)-phenylcarbamoyl]-phenyl}-piperidin-1-carboxylate]"
2,311 to 321,"CC(C)(C)OC(=O)NCc1ccc(C(=O)Nc2ccc(Nc3cc(-c4cccc5c4oc4ccccc45)ncn3)cc2)cc1 [Compound 17, tert-Butyl N-{4-[4-(6-dibenzofuran-4-yl-pyrimidin-4-ylamino)-phenylcarbamoyl]-benzyl}-carbamate]"
3,> 250,"CC(C)(C)OC(=O)NCCc1ccc(C(=O)Nc2ccc(Nc3cc(-c4cccc5c4oc4ccccc45)ncn3)cc2)cc1 [Compound 23, tert-Butyl N-(2-{4-[4-(6-Dibenzofurane-4-yl-pyrimidin-4-ylamino)-phenylcarbamoyl]phenyl}-ethyl)-carbamate]"
4,239 to 241,"CC(C)(C)OC(=O)NCCc1ccc(C(=O)Nc2cccc(Nc3cc(-c4cccc5c4oc4ccccc45)ncn3)c2)cc1 [Compound 26, tert-Butyl N-(2-{4-[3-(6-dibenzofuran-4-yl-pyrimidin-4-ylamino)-phenylcarbamoyl]-phenyl}-ethyl)-carbamate]"
5,251 to 255,"NCc1ccc(CC(=O)Nc2ccc(Nc3cc(-c4cccc5c4oc4ccccc45)ncn3)cc2)cc1.O=C(O)C(F)(F)F [Compound 66, 2-(4-Aminomethyl-phenyl)-N-[4-(6-dibenzofuran-4-yl-pyrimidin-4-ylamino)-phenyl]-acetamide trifluoroacetate]"
6,> 340,"CC(C)(C)OC(=O)Nc1ccccc1C(=O)Nc1ccc(Nc2cc(-c3cccc4c3oc3ccccc34)ncn2)cc1 [Compound 18, tert-Butyl N-{2-[4-(6-Dibenzofuran-4-yl-pyrimidin-4-ylamino)-phenylcarbamoyl]-phenyl}-carbamate]"
7,214,"CC(C)(C)OC(=O)Nc1ccc(C(=O)Nc2cccc(Nc3cc(-c4cccc5c4oc4ccccc45)ncn3)c2)cc1 [Compound 30, tert-Butyl N-{4-[3-(6-Dibenzofuran-4-yl-pyrimidin-4-ylamino)-phenylcarbamoyl]-phenyl}-carbamate]"
8,125 to 130,Nc1ccc(CC(=O)Nc2ccc(Nc3cc(-c4cccc5c4oc4ccccc45)ncn3)cc2)cc1.O=C(O)C(F)(F)F
9,237,"CC(C)(C)OC(=O)NCc1cccc(C(=O)Nc2ccc(Nc3cc(-c4cccc5c4oc4ccccc45)ncn3)cc2)c1 [Compound 22, tert-Butyl N-{3-[4-(6-Dibenzofuran-4-yl-pyrimidin-4-ylamino)-phenylcarbamoyl]-benzyl}-carbamate]"
10,245,"CC(C)(C)OC(=O)NCc1ccnc(C(=O)Nc2ccc(Nc3cc(-c4cccc5c4oc4ccccc45)ncn3)cc2)c1 [Compound 24, tert-Butyl N-{2-[4-(6-Dibenzofuran-4-yl-pyrimidin-4-ylamino)-phenylcarbamoyl]-pyridin-4-ylmethyl}-carbamate]"
11,233 to 236,"CC(C)(C)OC(=O)NCc1ccc(C(=O)Nc2cccc(Nc3cc(-c4cccc5c4oc4ccccc45)ncn3)c2)cc1 [Compound 25, tert-Butyl {4-[3-(6-dibenzofuran-4-yl-pyrimidin-4-ylamino)-phenylcarbamoyl]-benzyl}-carbamate]"
12,160 to 163,"CC(C)(C)OC(=O)Nc1cccc(C(=O)Nc2cccc(Nc3cc(-c4cccc5c4oc4ccccc45)ncn3)c2)c1 [Compound 28, tert-Butyl {3-[3-(6-dibenzofuran-4-yl-pyrimidin-4-ylamino)-phenylcarbamoyl]-phenyl}-carbamate]"
13,> 320,"CC(C)(C)OC(=O)Nc1ccc(CC(=O)Nc2ccc(Nc3cc(-c4cccc5c4oc4ccccc45)ncn3)cc2)cc1 [Compound 21, tert-Butyl N-(4-{[4-(6-dibenzofuran-4-yl-pyrimidin-4-ylamino)-phenylcarbamoyl]-methyl}-phenyl)-carbamate]"
14,261 to 263,"CC(C)(C)c1ccc(C(=O)Nc2ccc(Nc3cc(-c4cccc5c4oc4ccccc45)ncn3)cc2)cc1 [Compound 8, 4-tert-Butyl-N-[4-(6-dibenzofuran-4-yl-pyrimidin-4-ylamino)-phenyl]-benzamide]"
